Data published in ChEMBL document CHEMBL4364307, “2-(phenylthio)ethylidene derivatives as anti-Trypanosoma cruzi compounds: Structural design, synthesis and antiparasitic activity” (Eur J Med Chem, 2019).
pIC50: −log10 of the molar value. The source made the active and inactive calls. The calls are words filed in the database; no cut-off is given here.

Legend:
[1] = biological target: Cruzipain (Trypanosoma cruzi) (UniProt P25779); experiment: Inhibition of Trypanosoma cruzi cruzain at 100 uM using Z-FR-AMC as substrate preincubated for 10 mins followed by substrate addition and measured for 5 mins by fluorimetric analysis relative to control
[2] = Cytotoxicity against Balb/c mouse splenocyte assessed as reduction in cell viability after 24 hrs by [3H]thymidine incorporation based beta scintillation counting analysis; settings: mouse splenocytes
Trypanosoma cruzi [3] = experiment: Antitrypanosomal activity against Trypanosoma cruzi Dm28c epimastigotes after 5 days by Neubauer chamber method; assay type: functional, organism-based; settings: 120 h
[4] = Selectivity index, ratio of maximum non-toxic concentration for Balb/c mouse splenocyte to IC50 for bloodstream form of Trypanosoma cruzi trypomastigotes; assay type: toxicity; settings: mouse splenocytes, read-out: Selectivity Index
Trypanosoma cruzi [5] = experiment: Antitrypanosomal activity against bloodstream form of Trypanosoma cruzi trypomastigotes after 24 hrs by Neubauer chamber method; assay type: functional, organism-based
Cruzipain = Cruzipain (Trypanosoma cruzi, UniProt P25779); experiment: Inhibition of Trypanosoma cruzi cruzain using Z-FR-AMC as substrate preincubated for 10 mins followed by substrate addition and measured for 5 mins by fluorimetric analysis
Trypanosoma cruzi [6] = experiment: Induction of apoptosis in bloodstream form of Trypanosoma cruzi trypomastigotes at 0.25 mM after 24 hrs by annexin V-FITC/propidium iodide staining based flow cytometry relative to control; assay type: functional, organism-based
Trypanosoma cruzi [7] = experiment: Induction of apoptosis in bloodstream form of Trypanosoma cruzi trypomastigotes at 1.1 mM after 24 hrs by annexin V-FITC/propidium iodide staining based flow cytometry relative to control; assay type: functional, organism-based
Trypanosoma cruzi [8] = experiment: Antiparasitic activity against bloodstream form of Trypanosoma cruzi Y strain trypomastigotes infected in Balb/c mouse peritoneal macrophage incubated for 6 hrs followed by replacement of fresh medium measured after 3 days by Giemsa-staining based optical microscopic analysis; assay type: functional, organism-based
Trypanosoma cruzi [9] = experiment: Antiparasitic activity against bloodstream form of Trypanosoma cruzi Y strain trypomastigotes infected in Balb/c mouse peritoneal macrophage assessed as reduction in number of amastigotes/100 macrophages at 20 uM incubated for 6 hrs followed by replacement of fresh medium measured after 3 days by Giemsa-staining based optical microscopic analysis; assay type: functional, organism-based
Trypanosoma cruzi [10] = experiment: Antiparasitic activity against bloodstream form of Trypanosoma cruzi Y strain trypomastigotes infected in Balb/c mouse peritoneal macrophage assessed as reduction in percent of infected macrophages at 20 uM incubated for 6 hrs followed by replacement of fresh medium measured after 3 days by Giemsa-staining based optical microscopic analysis; assay type: functional, organism-based
Trypanosoma cruzi [11] = experiment: Antiparasitic activity against bloodstream form of Trypanosoma cruzi Y strain trypomastigotes infected in Balb/c mouse peritoneal macrophage at 20 uM incubated for 2 hrs followed by extracellular parasites wash out and measured after 2 hrs by Giemsa staining-based optical microscopic analysis
Trypanosoma cruzi [12] = experiment: Antitrypanosomal activity against Trypanosoma cruzi Y strain epimastigotes after 15 hrs by hemocytometer based cell counting method; assay type: functional, organism-based
Trypanosoma cruzi [13] = experiment: Induction of morphological changes in Trypanosoma cruzi bloodstream trypomastigotes assessed as disorganization of golgi complex at 3 uM after 24 hrs by TEM analysis; assay type: functional, organism-based
Trypanosoma cruzi [14] = experiment: Induction of morphological changes in Trypanosoma cruzi bloodstream trypomastigotes assessed as appearance of myelin figures in mitochondria at 3 uM after 24 hrs by TEM analysis; assay type: functional, organism-based
Trypanosoma cruzi [15] = experiment: Induction of morphological changes in Trypanosoma cruzi bloodstream trypomastigotes assessed as appearance myelin figures in cytoplasm at 3 uM after 24 hrs by TEM analysis; assay type: functional, organism-based
Trypanosoma cruzi [16] = experiment: Induction of morphological changes in Trypanosoma cruzi bloodstream trypomastigotes assessed as appearance of atypical vacuoles in cytoplasm at 3 uM after 24 hrs by TEM analysis; assay type: functional, organism-based

Chain of Cruzipain (Trypanosoma cruzi) (P25779 123-467 limits assumed): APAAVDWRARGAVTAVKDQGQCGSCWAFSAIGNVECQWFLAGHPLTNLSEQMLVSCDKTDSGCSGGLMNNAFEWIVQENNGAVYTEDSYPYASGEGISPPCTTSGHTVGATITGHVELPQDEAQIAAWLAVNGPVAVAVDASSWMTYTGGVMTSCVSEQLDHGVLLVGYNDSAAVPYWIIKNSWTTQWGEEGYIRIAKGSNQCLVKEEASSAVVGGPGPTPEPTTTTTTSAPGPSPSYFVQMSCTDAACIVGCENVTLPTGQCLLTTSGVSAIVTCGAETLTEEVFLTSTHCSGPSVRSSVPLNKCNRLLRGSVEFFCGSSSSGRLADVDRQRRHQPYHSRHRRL
Chain of Cruzipain (P25779 whole entry): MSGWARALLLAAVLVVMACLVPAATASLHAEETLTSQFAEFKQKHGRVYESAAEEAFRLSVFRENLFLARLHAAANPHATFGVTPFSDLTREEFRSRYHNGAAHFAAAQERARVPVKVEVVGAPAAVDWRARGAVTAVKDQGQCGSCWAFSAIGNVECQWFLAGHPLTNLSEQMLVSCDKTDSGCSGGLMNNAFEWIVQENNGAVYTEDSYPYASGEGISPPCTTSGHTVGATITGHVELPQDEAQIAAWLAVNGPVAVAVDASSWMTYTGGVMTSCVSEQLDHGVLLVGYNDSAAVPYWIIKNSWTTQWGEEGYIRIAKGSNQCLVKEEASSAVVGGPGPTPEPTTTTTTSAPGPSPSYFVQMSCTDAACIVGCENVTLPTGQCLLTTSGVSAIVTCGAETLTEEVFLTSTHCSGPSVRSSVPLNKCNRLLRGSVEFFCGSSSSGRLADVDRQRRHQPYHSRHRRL

SMILES | inhibition [1] [%] | MNTC at 24 h [2] [µM] | pIC50 (Trypanosoma cruzi [3]) | selectivity ratio [4] | pIC50 (Trypanosoma cruzi [5]) | further results
NC(=S)N/N=C/CSc1cccc(Cl)c1 | 75.9 | 96.2 | 5.26 | 6.8 | 4.85 | pIC50 (Cruzipain): 4.72
NC(=S)N/N=C/CSc1ccc(Cl)cc1 | 25.2 | < 3.8 | 5.21 | 0.3 | 4.85 | –
NC(=S)N/N=C/CSc1ccccc1 | 42.1 | – | 3.99 | 0.25 | 4.05 | –
Clc1ccc(-c2csc(N/N=C/CSc3ccccc3)n2)cc1Cl | 62.9 | 127 | 4.25 | 8.3 | 4.82 | –
Cc1cccc(SC/C=N/NC(N)=S)c1 | 43.4 | < 4.2 | 5.20 | 2.3 | 5.74 | Activity (Trypanosoma cruzi [6]): Active; Activity (Trypanosoma cruzi [7]): Active
NC(=S)N/N=C/CSc1ccc(Br)cc1 | 16.6 | < 3.3 | 4.81 | 0.5 | 5.18 | Activity (Trypanosoma cruzi [6]): Active; Activity (Trypanosoma cruzi [7]): Active
NC(=S)N/N=C/CSc1ccc(F)cc1 | 27.5 | 20.5 | 5.21 | 3.6 | 5.24 | –
Cc1ccc(SC/C=N/NC(N)=S)cc1 | 31.4 | 4.2 | 5.02 | – | – | –
O=[N+]([O-])c1ccc(-c2csc(N/N=C/CSc3ccccc3)n2)cc1 | 18.9 | 67.5 | 4.80 | 8 | 5.08 | pIC50 (Trypanosoma cruzi [8]): 4.72; Activity (Trypanosoma cruzi [9]): Active; Activity (Trypanosoma cruzi [10]): Active
NC(=S)N/N=C/CSc1ccccc1Cl | 46 | < 3.8 | 4.32 | 0.6 | 5.21 | –
Clc1ccc(-c2csc(N/N=C/CSc3ccccc3)n2)c(Cl)c1 | 67.2 | 127 | 5.10 | 30.9 | 5.39 | Activity (Trypanosoma cruzi [6]): Active; Activity (Trypanosoma cruzi [7]): Active
Clc1ccc(-c2csc(N/N=C/CSc3ccccc3)n2)cc1 | 17.6 | > 278 | 5.17 | > 67.8 | 5.39 | pIC50 (Trypanosoma cruzi [8]): 5.10; Activity (Trypanosoma cruzi [6]): Active; Activity (Trypanosoma cruzi [9]): Active; Activity (Trypanosoma cruzi [7]): Active; inhibition (Trypanosoma cruzi [11]): Active; Activity (Trypanosoma cruzi [10]): Active
Cc1ccc(-c2csc(N/N=C/CSc3ccccc3)n2)cc1 | 11.9 | 147 | 5.03 | 25.8 | 5.24 | pIC50 (Trypanosoma cruzi [8]): 4.73; Activity (Trypanosoma cruzi [6]): Active; Activity (Trypanosoma cruzi [9]): Active; Activity (Trypanosoma cruzi [7]): Active; Activity (Trypanosoma cruzi [10]): Active
Cc1ccccc1SC/C=N/NC(N)=S | 13.9 | 41.8 | 4.82 | 6.9 | 5.21 | –
C(/CSc1ccccc1)=N\Nc1nc(-c2ccccc2)cs1 | – | 154 | 4.23 | 29.5 | 5.28 | Activity (Trypanosoma cruzi [6]): Active; Activity (Trypanosoma cruzi [7]): Active
O=C(Cn1ccnc1[N+](=O)[O-])NCc1ccccc1 [BENZNIDAZOLE] | – | – | – | 15.5 | 5.21 | –
COc1ccc(SC/C=N/NC(N)=S)cc1 | 34.6 | < 3.9 | 4.49 | 0.1 | 4.40 | –
NC(=S)N/N=C/CSc1cc(Cl)ccc1Cl | 37.4 | 85 | 5.21 | 10.4 | 5.09 | –
Cc1ccc(C)c(SC/C=N/NC(N)=S)c1 | 87.6 | < 3.9 | 5.21 | 0.7 | 5.23 | Activity (Trypanosoma cruzi [6]): Active; Activity (Trypanosoma cruzi [7]): Active; pIC50 (Cruzipain): 5.48
Fc1ccc(-c2csc(N/N=C/CSc3ccccc3)n2)cc1 | 22.9 | > 291 | – | > 7 | 4.38 | –
C/C(COc1ccccc1)=N\Nc1nc(-c2ccc(Br)cc2)cs1 | – | – | 4.30 | – | – | –
C/C(COc1ccccc1)=N\Nc1nc(-c2ccncc2)cs1 | – | – | 5.40 | – | 5.41 | –
CC(C)C1S/C(=N/N=C/CSc2ccccc2)NC1=O (stereo not drawn) | – | – | – | – | – | pIC50 (Trypanosoma cruzi [12]): 6.52
C/C(COc1ccccc1)=N\Nc1nc(-c2cccc([N+](=O)[O-])c2)cs1 | – | – | 5.40 | – | 5.42 | –
O=[N+]([O-])c1cccc(-c2csc(N/N=C/CSc3ccccc3)n2)c1 | 16.2 | 135 | 5.08 | 7 | 4.72 | –
COc1ccc(-c2csc(N/N=C/CSc3ccccc3)n2)cc1 | – | > 281 | 4.20 | > 15.2 | 4.73 | –
Brc1ccc(-c2csc(N/N=C/CSc3ccccc3)n2)cc1 | 7 | > 239 | 5.27 | > 16.7 | 4.84 | –
Cc1sc(N/N=C/CSc2ccccc2)nc1-c1ccc(Br)cc1 | 27 | > 247 | 5.39 | > 95.1 | 5.59 | pIC50 (Trypanosoma cruzi [8]): 4.99; Activity (Trypanosoma cruzi [6]): Active; Activity (Trypanosoma cruzi [13]): Active; Activity (Trypanosoma cruzi [14]): Active; Activity (Trypanosoma cruzi [15]): Active; Activity (Trypanosoma cruzi [9]): Active; Activity (Trypanosoma cruzi [7]): Active; inhibition (Trypanosoma cruzi [11]): Active; Activity (Trypanosoma cruzi [10]): Active; Activity (Trypanosoma cruzi [16]): Active
